Test results published in ChEMBL document CHEMBL4725325, “Synthesis and biological evaluation of parthenolide derivatives with reduced toxicity as potential inhibitors of the NLRP3 inflammasome” (Bioorg Med Chem Lett, 2020).
The source made the active and inactive calls. The rule behind the calls is not given here.

Legend:
[1] = target: NACHT, LRR and PYD domains-containing protein 3 (Mus musculus) (UniProt Q8R4B8); assay: Inhibition of NLRP3 inflammasome in mouse J774.A1 cells assessed as reduction in LPS-induced IL-1beta release at 10 uM in presence of PTL/MCL; type: cell-based
NACHT, LRR and PYD domains-containing protein 3 (Mus musculus), sequence (Q8R4B8 whole entry, the tested form may be a part): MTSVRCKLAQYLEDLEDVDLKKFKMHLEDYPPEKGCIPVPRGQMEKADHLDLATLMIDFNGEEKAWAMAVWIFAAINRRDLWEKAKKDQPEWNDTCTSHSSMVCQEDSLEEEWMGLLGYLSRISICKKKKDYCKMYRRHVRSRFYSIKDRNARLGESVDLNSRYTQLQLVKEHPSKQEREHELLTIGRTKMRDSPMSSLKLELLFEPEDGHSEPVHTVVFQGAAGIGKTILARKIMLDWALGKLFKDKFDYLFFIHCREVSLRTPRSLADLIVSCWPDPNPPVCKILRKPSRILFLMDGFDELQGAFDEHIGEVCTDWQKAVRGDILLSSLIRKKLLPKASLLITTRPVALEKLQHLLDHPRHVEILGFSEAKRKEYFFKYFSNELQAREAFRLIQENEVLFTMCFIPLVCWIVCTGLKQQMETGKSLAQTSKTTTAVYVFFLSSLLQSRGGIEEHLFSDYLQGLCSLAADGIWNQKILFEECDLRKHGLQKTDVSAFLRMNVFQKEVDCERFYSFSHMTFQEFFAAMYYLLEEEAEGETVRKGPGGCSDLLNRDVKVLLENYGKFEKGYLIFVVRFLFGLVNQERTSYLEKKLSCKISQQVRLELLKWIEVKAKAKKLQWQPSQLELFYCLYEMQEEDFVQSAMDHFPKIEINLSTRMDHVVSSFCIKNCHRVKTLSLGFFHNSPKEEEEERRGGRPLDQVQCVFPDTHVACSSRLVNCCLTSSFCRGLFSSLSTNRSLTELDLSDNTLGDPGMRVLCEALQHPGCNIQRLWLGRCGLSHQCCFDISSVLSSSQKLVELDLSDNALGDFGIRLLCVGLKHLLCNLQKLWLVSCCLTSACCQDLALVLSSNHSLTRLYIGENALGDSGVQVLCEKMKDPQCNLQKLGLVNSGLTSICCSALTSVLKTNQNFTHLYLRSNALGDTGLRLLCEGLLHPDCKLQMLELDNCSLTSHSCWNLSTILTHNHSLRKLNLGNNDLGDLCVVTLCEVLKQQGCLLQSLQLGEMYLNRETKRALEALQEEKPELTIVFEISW

[2] = target: T1, NACHT, LRR and PYD domains-containing protein 3 (Homo sapiens, UniProt Q96P20); assay: Inhibition of NLRP3 inflammasome in human primary glial cells assessed as reduction in LPS-induced IL-1beta release at 10 uM in presence of PTL/MCL; type: cell-based; details: Primary neuron
T1 sequence (Q96P20 whole entry, the tested form may be a part): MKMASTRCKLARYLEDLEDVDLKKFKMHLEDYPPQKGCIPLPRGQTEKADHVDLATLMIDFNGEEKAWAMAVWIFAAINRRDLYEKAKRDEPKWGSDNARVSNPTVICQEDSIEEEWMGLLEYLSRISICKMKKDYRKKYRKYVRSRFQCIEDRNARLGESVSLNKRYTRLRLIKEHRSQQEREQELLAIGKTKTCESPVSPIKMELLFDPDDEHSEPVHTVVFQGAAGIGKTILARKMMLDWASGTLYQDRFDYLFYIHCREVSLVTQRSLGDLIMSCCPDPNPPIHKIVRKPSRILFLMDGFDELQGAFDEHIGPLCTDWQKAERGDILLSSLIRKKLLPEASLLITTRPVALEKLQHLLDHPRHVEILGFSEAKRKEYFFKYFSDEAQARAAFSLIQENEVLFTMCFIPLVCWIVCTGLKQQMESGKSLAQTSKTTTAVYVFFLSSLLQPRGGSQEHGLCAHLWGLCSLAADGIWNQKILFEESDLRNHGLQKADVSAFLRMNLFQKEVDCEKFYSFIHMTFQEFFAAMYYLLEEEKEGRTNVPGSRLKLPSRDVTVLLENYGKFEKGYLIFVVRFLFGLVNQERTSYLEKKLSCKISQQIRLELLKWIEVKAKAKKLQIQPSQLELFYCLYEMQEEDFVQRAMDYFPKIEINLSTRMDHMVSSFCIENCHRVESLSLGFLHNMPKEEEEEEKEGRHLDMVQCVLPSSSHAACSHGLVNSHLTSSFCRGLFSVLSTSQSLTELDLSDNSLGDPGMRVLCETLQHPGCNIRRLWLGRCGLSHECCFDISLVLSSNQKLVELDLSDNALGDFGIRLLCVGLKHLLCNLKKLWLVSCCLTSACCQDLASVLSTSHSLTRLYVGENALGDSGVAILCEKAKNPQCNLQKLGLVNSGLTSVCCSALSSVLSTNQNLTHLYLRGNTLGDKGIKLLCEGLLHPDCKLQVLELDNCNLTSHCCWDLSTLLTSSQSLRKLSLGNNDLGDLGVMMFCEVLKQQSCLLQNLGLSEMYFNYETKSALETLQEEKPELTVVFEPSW

[3] = Therapeutic index, ratio of IC50 for cytotoxicity against mouse J774.A1 cells to IC50 for antiinflammatory activity in mouse J774.A1 cells; type: toxicity, cell-based
[4] = Cytotoxicity against mouse J774.A1 cells; type: cell-based; details: read-out: TC50 (the source's name)
[5] = target: NACHT, LRR and PYD domains-containing protein 3 (Mus musculus) (UniProt Q8R4B8); assay: Inhibition of NLRP3 inflammasome in mouse J774.A1 cells assessed as reduction in LPS-induced IL-1beta release at 1 to 10 uM; type: cell-based; details: dose microM 1-10
[6] = target: T1, NACHT, LRR and PYD domains-containing protein 3; assay: Inhibition of NLRP3 inflammasome in human primary glial cells assessed as reduction in LPS-induced IL-1beta release; type: cell-based
[7] = target: NACHT, LRR and PYD domains-containing protein 3 (Mus musculus, UniProt Q8R4B8); assay: Inhibition of NLRP3 inflammasome in mouse J774.A1 cells assessed as reduction in LPS-induced IL-1beta release; type: cell-based
NACHT, LRR and PYD domains-containing protein 3 (Mus musculus, UniProt Q8R4B8), sequence (Q8R4B8 whole entry, the tested form may be a part): as the sequence (Q8R4B8 whole entry, the tested form may be a part) above

[8] = system: Mus musculus; assay: In vivo inhibition of NLRP3 in mouse assessed as reduction in LPS-induced IL-1beta release in serum at 30 mg/kg, po; type: functional, organism-based
[9] = target: T1, NACHT, LRR and PYD domains-containing protein 3; assay: Inhibition of NLRP3 inflammasome in human primary glial cells assessed as reduction in LPS-induced IL-1beta release at 1 to 10 uM; type: cell-based; details: dose microM 1-10
[10] = Cytotoxicity against human HEK-293T cells; type: cell-based; details: read-out: TC50 (the source's name)
[11] = system: Mus musculus; assay: In vivo inhibition of NLRP3 in mouse assessed as reduction in LPS-induced IL-1beta release in peritoneal fluid at 30 mg/kg, po; type: functional, organism-based
[12] = target: T1, NACHT, LRR and PYD domains-containing protein 3; assay: Inhibition of NLRP3 inflammasome activation (unknown origin) assessed as reduction in IL-1beta by Western blot analysis; details: dose microM 0.2-5
[13] = target: T1, NACHT, LRR and PYD domains-containing protein 3; assay: Inhibition of NLRP3 inflammasome activation (unknown origin) assessed as reduction in caspase 1 p20 level by Western blot analysis; type: tissue-based; details: Primary neuron, dose microM 0.2-5
[14] = target: T1, NACHT, LRR and PYD domains-containing protein 3; assay: Inhibition of NLRP3 inflammasome activation (unknown origin) assessed as reduction in procaspase1 at 0.2 to 5 uM by Western blot analysis; details: dose microM 0.2-5
[15] = target: T1, NACHT, LRR and PYD domains-containing protein 3; assay: Inhibition of NLRP3 inflammasome activation (unknown origin) assessed as reduction in proIL-1beta at 0.2 to 5 uM by Western blot analysis; details: dose microM 0.2-5
[16] = target: T1, NACHT, LRR and PYD domains-containing protein 3; assay: Inhibition of NLRP3 inflammasome activation (unknown origin) assessed as reduction in ASC level at 0.2 to 5 uM by Western blot analysis; details: dose microM 0.2-5
[17] = target: T1, NACHT, LRR and PYD domains-containing protein 3; assay: Inhibition of NLRP3 inflammasome in human primary glial cells assessed as reduction in LPS-induced IL-1beta release at 10 uM; type: cell-based; details: Primary neuron
[18] = target: NACHT, LRR and PYD domains-containing protein 3 (Mus musculus) (UniProt Q8R4B8); assay: Inhibition of NLRP3 inflammasome in mouse J774.A1 cells assessed as reduction in LPS-induced IL-1beta release at 10 uM; type: cell-based

| SMILES | selectivity ratio [3] | CC50 [4] | inhibition [5] | IC50 [6] | IC50 [7] | inhibition [9] | CC50 [10] | also measured |
| --- | --- | --- | --- | --- | --- | --- | --- | --- |
| C/C1=C\CC[C@]2(C)O[C@@H]2[C@H]2OC(=O)[C@@H](CN(C)CC(=O)Nc3nc4ccc(OC(F)(F)F)cc4s3)[C@@H]2CC1 | – | – | – | – | – | – | – | inhibition [1]: Active; inhibition [2]: Active |
| CC1=C2CC[C@@](C)(O)[C@@H]2[C@H]2OC(=O)[C@@H](CN(C)CC(=O)Nc3nc4ccc(OC(F)(F)F)cc4s3)[C@@H]2CC1 | – | – | – | – | – | – | – | inhibition [1]: Active; inhibition [2]: Active |
| C=C1C(=O)O[C@@H]2[C@H]3O[C@@]3(C)CC/C=C(\C)CC[C@@H]12 | 10.2 | 14.3 µM | Dose-dependent effect | 1.8 µM | 1.4 µM | Dose-dependent effect | 29.9 µM | inhibition [8]: Active; inhibition [11]: Active |
| O=S(=O)(c1ccccc1)c1no[n+]([O-])c1S(=O)(=O)c1ccccc1 | 12.2 | 11.4 µM | – | 1.9 µM | 0.93 µM | – | 22.4 µM | – |
| C=C1C(=O)O[C@@H]2/C=C(\C)CC/C=C(\C)CC[C@@H]12 | – | – | Dose-dependent effect | – | – | – | – | – |
| C/C1=C\CC[C@]2(C)O[C@@H]2[C@H]2OC(=O)[C@@H](CN(C)CCOc3no[n+]([O-])c3S(=O)(=O)c3ccccc3)[C@@H]2CC1 | 80.3 | 24.1 µM | – | 1 µM | 0.3 µM | – | 69.8 µM | inhibition [12]: Dose-dependent effect; inhibition [13]: Dose-dependent effect; inhibition [14]: inactive; inhibition [8]: Active; inhibition [15]: inactive; inhibition [11]: Active; inhibition [16]: inactive |
| C=C1CCC[C@]2(C)CC[C@H]3C(=C)C(=O)O[C@@H]3[C@@H]12 | – | – | Dose-dependent effect | – | – | Dose-dependent effect | – | – |
| C/C1=C\CC[C@]2(C)O[C@@H]2[C@H]2OC(=O)[C@@H](CN(C)CCCOc3no[n+]([O-])c3S(=O)(=O)c3ccccc3)[C@@H]2CC1 | 166 | 66.6 µM | – | 2.2 µM | 0.4 µM | – | 166 µM | – |
| CC1=C2CC[C@@](C)(O)[C@@H]2[C@H]2OC(=O)[C@@H](CN(C)CCOc3no[n+]([O-])c3S(=O)(=O)c3ccccc3)[C@@H]2CC1 | 119 | 59.5 µM | – | 1.7 µM | 0.5 µM | – | 56.5 µM | – |
| C=C1C(=O)O[C@@H]2[C@H]3C(C)=CCC[C@]3(C)CC[C@@H]12 | – | – | Dose-dependent effect | – | – | Dose-dependent effect | – | – |
| Nc1nc2ccc(OC(F)(F)F)cc2s1 | – | – | – | – | – | – | – | inhibition [17]: inactive; inhibition [18]: inactive; inhibition [1]: Active; inhibition [2]: Active |
| CC1=C2CC[C@@](C)(O)[C@@H]2[C@H]2OC(=O)[C@@H](CN(C)CCCOc3no[n+]([O-])c3S(=O)(=O)c3ccccc3)[C@@H]2CC1 | 140 | 68.5 µM | – | 2.3 µM | 0.49 µM | – | 106 µM | – |
| C=C1C(=O)O[C@H]2[C@H]1CCC(C)=C1CC[C@@](C)(O)[C@@H]12 [MICHELIOLIDE] | 9.5 | 21.9 µM | Dose-dependent effect | 5.9 µM | 2.3 µM | Dose-dependent effect | 51.7 µM | – |
